# Entries after “also recorded” stand apart in the source; their conditions may differ.
# Tests used:
# chick embryo = assay: Chick embryo diss. assay (Table II); type: in vivo
# Experimental: (§1) Using the chick embryo vitelline capillaries assay, compounds were tested for their ability to induce capillary regression. Each compound was applied in 0.1 ml of 15% Ficol 400 and PBS onto the embryo, and vascular regression was assessed after 60 minutes.
# Xenopus tadpoles = assay: Tadpole assay; settings: for functional similarity in tadpole assay / potency in tadpole assay relative to Fraction 1: Xenopus tadpole assay
# [1] = system: vitelline capillaries of 3- to 5-day chick embryo; assay: Chick embryo vitelline capillary regression assay; type: in vivo; parameters: key to vascular reactivity: +: Vascular reactivity; 0: No vascular reactivity; +/-: Equivocal reactivity; settings: for vascular reactivity: 60 minutes
# Experimental: as §1
# The 3-day chick embryo consists of an embryonic disc from which numerous vessels emerge and return, forming a "figure 8"-shaped structure--the embryo in the center with vascular loops extending outward over both poles. […] Following a lag period of around 15 minutes, the constriction of continuity between capillary and secondary vessels, generally on the "venous" side, was observed. Continued pulsatile blood flow progressed, resulting in a "swelling" of the blind tube, followed by a pinching off of the remaining connection and formation of an enclosed vascular sac resembling a "blood island." This process progressed until only the largest vessels remained intact.
# S. aureus = assay: Antibiotic activity, MIC; type: cell-based; settings: Staphylococcus aureus
# E. Coli = assay: Antibiotic activity, MIC; type: cell-based; settings: Escherichia coli
# C. albicans = assay: Antibiotic activity, MIC; type: cell-based; settings: Candida albicans
Structure (SMILES),"Minimum Effective Concentration, chick embryo diss. assay (chick embryo) [µg]",functional similarity in tadpole assay (Xenopus tadpoles),other results
COC(=O)CCC(C)[C@H]1CCC2C3C[C@@H](O)[C@H]4C[C@@H](NCCCNCCCCNCCCN)CC[C@]4(C)C3CC[C@@]21C (some centres unmarked) [drawing 101],1,,
COC(=O)CCC(C)[C@H]1CCC2C3CC[C@@H]4C[C@H](NCCCNCCCCNCCCN)CC[C@]4(C)C3C[C@H](O)[C@@]21C (some centres unmarked) [drawing 106],1,,
COC(=O)CC[C@@H](C)[C@H]1CC[C@H]2[C@@H]3C[C@@H](O)[C@H]4C[C@H](NCCCNCCCCNCCCN)CC[C@]4(C)[C@H]3CC[C@]12C [Compound 465],,pharmacologic activity similar to that seen for FX 3,
CC(C)CCC[C@@H](C)[C@H]1CC[C@H]2[C@@H]3[C@H](O)C[C@H]4C[C@H](NCCCNCCCCN)CC[C@]4(C)[C@H]3CC[C@]12C [Compound 370],,pharmacologic activity similar to that seen for FX 3,
CC(C)CCC[C@@H](C)[C@H]1CC[C@H]2[C@@H]3[C@H](O)C[C@H]4C[C@H](N)CC[C@]4(C)[C@H]3CC[C@]12C [Compound 1363],,pharmacologic activity similar to Fraction 1,potency in tadpole assay relative to Fraction 1 (Xenopus tadpoles): potencies comparable to that of Fraction 1
COC(=O)CC[C@@H](C)[C@H]1CC[C@H]2[C@@H]3[C@H](O)C[C@@H]4C[C@H](NCCN)CC[C@]4(C)[C@H]3CC[C@]12C [Compound 410],,functionally similar to compound 1437,
COC(=O)CC[C@@H](C)[C@H]1CC[C@H]2[C@@H]3CC[C@H]4C[C@H](NCCCNCCCCNCCCN)CC[C@]4(C)[C@H]3CC[C@]12C [Compound 458],,pharmacologic activity similar to that seen for FX 3,
CC(C)CCCC(C)[C@H]1CCC2C3CC[C@H]4C[C@H](NCCCN5CCCCN=C5N)CC[C@]4(C)C3CC[C@@]21C (some centres unmarked),> 10,,
C[C@H](CCC(=O)O)[C@H]1CC[C@H]2[C@@H]3[C@H](O)C[C@@H]4C[C@H](NCCN)CC[C@]4(C)[C@H]3CC[C@]12C [Compound 414],,pharmacologic activity similar to Fraction 1,vascular reactivity ([1]; 1 μg applied): 0; potency in tadpole assay relative to Fraction 1 (Xenopus tadpoles): potencies comparable to that of Fraction 1
CC(CCC(CO)(OS(=O)(=O)O)C(C)C)[C@H]1CCC2C3C(CC[C@@]21C)[C@@]1(C)CC[C@H](NCCCNCCCCN)C[C@@H]1C[C@H]3O (some centres unmarked),> 1,,
C[C@H](CCC(=O)O)[C@H]1CC[C@H]2[C@@H]3[C@H](O)C[C@H]4C[C@@H](NCCCNCCCCN)CC[C@]4(C)[C@H]3CC[C@]12C [Compound 381],,,vascular reactivity ([1]; 1 μg applied): 0
"CC(COS(=O)(=O)O)C(=O)CC[C@@H](C)[C@H]1CC[C@H]2[C@@H]3[C@H](O)C[C@H]4C[C@@H](NCCCNCCCCN)CC[C@]4(C)[C@H]3CC[C@]12C (single isomer, unassigned) [Compound 1360]",,,"effect on chick embryo blood ([1]; within 20 minutes): the blood circulating through the embryonic vessels exhibited a brighter red color; observed response in tadpole (Xenopus tadpoles; 10 μg/ml, stage 59-60 Xenopus): Swelling and lysis of certain erythrocytes occurred; also recorded: Subsequent tissue breakdown occurred in areas of tail surrounding these nuclear plugs; also recorded: extensive vasocclusion occurred within 60 minutes throughout the tail"
CC(C)CCC[C@@H](C)[C@H]1CC[C@H]2[C@@H]3CC[C@H]4C[C@H](NCCCNCCCCNCCCN)CC[C@]4(C)[C@H]3CC[C@]12C,> 10,,
COC(=O)CC[C@@H](C)[C@H]1CC[C@H]2[C@@H]3C[C@@H](O)[C@H]4C[C@@H](NCCCNCCCCNCCCN)CC[C@]4(C)[C@H]3CC[C@]12C [Compound 466],,pharmacologic activity similar to that seen for FX 3,
CC(CCC(=O)O)[C@H]1CCC2C3CC[C@@H]4C[C@H](NCCCNCCCCNCCCN)CC[C@]4(C)C3C[C@H](O)[C@@]21C (some centres unmarked) [drawing 107],> 1,,
"CC(CCC(=O)O)[C@H]1CCC2C3C(CC[C@@]21C)[C@@]1(C)CC[C@@H](NCCCNCCCCN)CC1C[C@H]3O (single isomer, unassigned)",0.01,,
COC(=O)CCC(C)[C@H]1CCC2C3C(CC[C@@]21C)[C@@]1(C)CC[C@H](NCCN)C[C@H]1C[C@H]3O (some centres unmarked) [drawing 92],> 1,,
CC(C)CCCC(C)[C@H]1CCC2C3C(CC[C@@]21C)[C@@]1(C)CC[C@H](N)C[C@@H]1C[C@H]3O (some centres unmarked) [drawing 88],1,,
COC(=O)CC[C@@H](C)[C@H]1CC[C@H]2[C@@H]3[C@H](O)C[C@@H]4C[C@@H](NCCN)CC[C@]4(C)[C@H]3CC[C@]12C [Compound 409],,functionally similar to compound 1437,vascular reactivity ([1]; 1 μg applied): 0
COC(=O)CC[C@@H](C)[C@H]1CC[C@H]2[C@@H]3C[C@@H](O)[C@H]4C[C@@H](NCCN)CC[C@]4(C)[C@H]3CC[C@]12C [Compound 432],,functionally similar to compound 1437,

Structure (SMILES),"Minimum Effective Concentration, chick embryo diss. assay (chick embryo) [µg]",functional similarity in tadpole assay (Xenopus tadpoles),other results
COC(=O)CCC(C)[C@H]1CCC2C3CC[C@@H]4C[C@H](NCCN)CC[C@]4(C)C3C[C@H](O)[C@@]21C (some centres unmarked) [drawing 65],,,MIC (S. aureus): 8 µg/mL; MIC (E. Coli): 8 µg/mL; MIC (C. albicans): 32 µg/mL
CC(C)CCCC(C)[C@H]1CCC2C3C(CC[C@@]21C)[C@@]1(C)CC[C@H](NCCCNCCCCN)C[C@@H]1C[C@H]3O (some centres unmarked) [drawing 87],1.10,,
COC(=O)CC[C@@H](C)[C@H]1CC[C@H]2[C@@H]3[C@H](O)C[C@@H]4C[C@@H](NCCCNCCCCNCCCN)CC[C@]4(C)[C@H]3CC[C@]12C [Compound 411],,,vascular reactivity ([1]; 0.1 μg applied): 0
COC(=O)CCC(C)[C@H]1CCC2C3CC[C@H]4C[C@H](NCCCNCCCCNCCCN)CC[C@]4(C)C3CC[C@@]21C (some centres unmarked) [drawing 74],,,MIC (S. aureus): 4 µg/mL; MIC (E. Coli): 32 µg/mL; MIC (C. albicans): 2 µg/mL
COC(=O)CC[C@@H](C)[C@H]1CC[C@H]2[C@@H]3CC[C@@H]4C[C@H](NCCN)CC[C@]4(C)[C@H]3C[C@H](O)[C@]12C [Compound 416],,functionally similar to compound 1437,
C[C@H](CCC(=O)O)[C@H]1CC[C@H]2[C@@H]3C[C@@H](O)[C@H]4C[C@@H](NCCN)CC[C@]4(C)[C@H]3CC[C@]12C [Compound 433],,functionally similar to compound 1437,
C=C(C)C(=O)CCC(C)[C@H]1CCC2C3C(CC[C@@]21C)[C@@]1(C)CC[C@H](NCCCNCCCCN)C[C@@H]1C[C@H]3O (some centres unmarked),,,MIC (S. aureus): 4 µg/mL; MIC (E. Coli): 32 µg/mL; MIC (C. albicans): 4 µg/mL
CC(CCC(=O)O)[C@H]1CCC2C3CC[C@@H]4C[C@H](NCCN)CC[C@]4(C)C3C[C@H](O)[C@@]21C (some centres unmarked) [drawing 115],> 1,,
COC(=O)CCC(C)[C@H]1CCC2C3C(CC[C@@]21C)[C@@]1(C)CCC(NCCCNCCCCNCCCN)C[C@@H]1C[C@H]3O (some centres unmarked),> 10,,
CC(C)CCCC(C)[C@H]1CCC2C3C(CC[C@@]21C)[C@@]1(C)CC[C@H](NCCCNCCCCN)C[C@@H]1C[C@H]3O (some centres unmarked) [drawing 57],,,MIC (S. aureus): 4 µg/mL; MIC (E. Coli): 64 µg/mL; MIC (C. albicans): 2 µg/mL
CC(CCC(=O)O)[C@H]1CCC2C3C(CC[C@@]21C)[C@@]1(C)CC[C@H](NCCCNCCCCN)C[C@@H]1C[C@H]3O (some centres unmarked),> 10,,
CC(C)CCCC(C)[C@H]1CCC2C3C(CC[C@@]21C)[C@@]1(C)CC[C@H](N)C[C@@H]1C[C@H]3O (some centres unmarked) [drawing 55],,,MIC (S. aureus): 2 µg/mL; MIC (E. Coli): > 256 µg/mL; MIC (C. albicans): 2 µg/mL
CC(CCCOS(=O)(=O)O)[C@H]1CCC2C3CC[C@H]4C[C@@H](NCCCNCCCCN)CC[C@]4(C)C3CC[C@@]21C (some centres unmarked),> 10,,
COC(=O)CCC(C)[C@H]1CCC2C3C[C@@H](O)[C@H]4C[C@H](NCCN)CC[C@]4(C)C3CC[C@@]21C (some centres unmarked) [drawing 103],> 1,,
COC(=O)CC[C@@H](C)[C@H]1CC[C@H]2[C@@H]3CC[C@H]4C[C@@H](NCCCNCCCCNCCCN)CC[C@]4(C)[C@H]3CC[C@]12C [Compound 459],,pharmacologic activity similar to that seen for FX 3,
COC(=O)CCC(C)[C@H]1CCC2C3C[C@@H](O)[C@H]4C[C@H](NCCCNCCCCNCCCN)CC[C@]4(C)C3CC[C@@]21C (some centres unmarked),,,MIC (S. aureus): 2 to 4 µg/mL; MIC (E. Coli): 32 µg/mL; MIC (C. albicans): 4 µg/mL
COC(=O)CCC(C)[C@H]1CCC2C3C(CC[C@@]21C)[C@@]1(C)CC[C@H](NCCN)C[C@H]1C[C@H]3O (some centres unmarked) [drawing 58],,,MIC (S. aureus): 32 µg/mL; MIC (E. Coli): 64 µg/mL; MIC (C. albicans): 16 µg/mL
CC(C)CCC[C@@H](C)[C@H]1CC[C@H]2[C@@H]3[C@H](O)C[C@H]4C[C@@H](NCCCNCCCCN)CC[C@]4(C)[C@H]3CC[C@]12C [Compound 371],,effects like those produced by compound 1436,
CC(CCC(=O)O)[C@H]1CCC2C3C[C@@H](O)[C@H]4C[C@@H](NCCN)CC[C@]4(C)C3CC[C@@]21C (some centres unmarked) [drawing 105],1,,
COC(=O)CC[C@@H](C)[C@H]1CC[C@H]2[C@@H]3C[C@@H](O)[C@H]4C[C@H](NCCN)CC[C@]4(C)[C@H]3CC[C@]12C [Compound 431],,functionally similar to compound 1437,

# Reference: patent US5792635A, “Method of inhibiting the sodium/proton exchanger NHE3 and method of inhibiting growth by administering squalamine” (priority 1995, dated 1998)
